{"source": "patent US12533340B2", "about": "“Treatment of autoimmune disease in a patient receiving additionally a beta-blocker” (NOVARTIS AG, priority 2015, dated 2026)", "key": {"healthy volunteers [1]": {"tested_on": "healthy volunteers", "assay": "Clinical trial: effect on heart rate (EmaxHR) from 12-lead Holter ECG recordings", "format": "in vivo, human", "conditions": "for mean EmaxHR (maximum change from baseline in time matched, hourly average HR): Day 10, monotherapy at steady state, siponimod 2 mg qd after titration or propranolol 80 mg LA qd, placebo 11.73 bpm", "source_text": "(§1) Healthy volunteers (men and women) aged between 18 and 55 years with a body mass index of 18-30 kg/m^2 were included in the study. Subjects were required to have an FEV1 of ≥90% of predicted normal, a systolic blood pressure (BP) of 90-140 mm Hg, a diastolic BP of 50-90 mm Hg and a pulse rate of 50-90 bpm. Women of childbearing potential, pregnant or lactating women, homozygous carriers for CYP2C9*3 genotype, smokers, those with current or medical history of cardiovascular disorders or bronchospastic disease were excluded from this study. At screening, a 24 h Holter recording was performed on all subjects to exclude those with any significant arrhythmia.\nThis was a double-blind, randomised, placebo-controlled study consisting of the following periods: screening (28 days), baseline evaluation (2 days), treatment (20 days) and study completion evaluation (approximately 10 days after the last drug administration; FIG. 1). Eligible subjects were domiciled for 22 days, starting approximately 36 h before dosing until 24 h post-dose after Day 20. The baseline evaluations were performed on Day −2 or Day −1. Subjects were randomised to one of the four treatment groups (A, B, C and D) in a ratio of 1:1:1:1. […] In Group A, treatment was initiated with the siponimod dose-titration regimen (Days 1-6) followed by siponimod 2 mg (Days 7-20). Siponimod was uptitrated by one administration of 0.25 mg siponimod on day 1, one administration of 0.25 mg siponimod on day 2, one administration of 0.5 mg siponimod on day 3, one administration of 0.75 mg siponimod on day 4, one administration of 1.25 mg siponimod on day 5 and one administration of 2 mg siponimod on day 6, followed by a steady dose of 2 mg siponimod qd thereafter. […] These subjects concomitantly received siponimod-placebo (Days 1-10), followed by the siponimod dose-titration regimen (Days 11-16) and siponimod 2 mg (Days 17-20). […]\n(§2) The HR and bradyarrhythmias were evaluated from the 12-Lead Holter electrocardiogram (ECG) recordings. […] The hourly average HR in each post-dose hour was calculated from the 60 intervals of per minute HR data. […]"}, "healthy volunteers [2]": {"tested_on": "healthy volunteers", "assay": "Clinical trial: bradyarrhythmias (AVBs, sinus pauses) from 24 h post-dose Holter evaluation", "format": "in vivo, human", "source_text": "as §1\nThis was a double-blind, randomised, placebo-controlled study consisting of the following periods: screening (28 days), baseline evaluation (2 days), treatment (20 days) and study completion evaluation (approximately 10 days after the last drug administration; FIG. 1). Eligible subjects were domiciled for 22 days, starting approximately 36 h before dosing until 24 h post-dose after Day 20. […]\nas §2\nThe cardiac rhythm was evaluated from the 24 h post-dose Holter evaluation as mentioned earlier. […]"}, "[3]": {"conditions": "deduced on the basis of previous reports (Legangneux 2013, Murdoch 1991); cited from earlier work"}}, "data": [{"smiles": "CCc1cc(/C(C)=N/OCc2ccc(C3CCCCC3)c(C(F)(F)F)c2)ccc1CN1CC(C(=O)O)C1", "note": "[siponimod, 1-{4-[1-((E)-4-cyclohexyl-3-trifluoromethyl-benzyloxyimino)-ethyl]-2-ethyl-benzyl}-azetidine-3-carboxylic acid]", "values": [{"measurement": "mean EmaxHR (maximum change from baseline in time matched, hourly average HR)", "setting": "healthy volunteers [1]", "result": 16.79, "unit": "bpm"}, {"measurement": "mean difference in EmaxHR, siponimod alone versus propranolol alone", "setting": "healthy volunteers [1]; Day 10, 95% CI -4.98, 2.87, P=0.595", "result": "−1.06", "unit": "bpm"}, {"measurement": "episodes of second-degree AVBs or SPs of >3 seconds duration", "setting": "healthy volunteers [2]; 24 h Holter on the evaluation days", "result": "no episodes"}, {"measurement": "time to reach a pharmacokinetic steady state", "setting": "[3]", "result": "approximately 10 days"}]}, {"smiles": "CC(C)NCC(O)COc1cccc2ccccc12", "note": "(stereo not drawn) [propranolol, reference compound]", "values": [{"measurement": "mean EmaxHR (maximum change from baseline in time matched, hourly average HR)", "setting": "healthy volunteers [1]", "result": 17.85, "unit": "bpm"}, {"measurement": "episodes of Mobitz I AVB", "setting": "healthy volunteers [2]; propranolol only treatment", "result": "Two"}]}]}
